Results from PMC7037321, “Development and Validation of Analytical Method for SH-1242 in the Rat and Mouse Plasma by Liquid Chromatography/Tandem Mass Spectrometry” (Molecules, 2020).
Blank lines part the entries; values can stand above or below the compound they belong to.

Experiments:
[1] = test system: hypoxia-mediated angiogenesis; parameters: method as in PMID 24875598; details: in vitro model of hypoxia-mediated angiogenesis; cited from earlier work
[2] = Pharmacokinetic study after single intravenous administration to rats; type: in vivo; details: male, Sprague-Dawley, rat, plasma, single intravenous 0.1 mg/kg, n = 4, mean ± S.D.
Protocol: (§1) To test the applicability of the current assay to pharmacokinetic studies, in preclinical animal species, male Sprague-Dawley rats (weighing 250–270 g) or ICR mice (weighing 18–20 g) were used. Prior to the experiment, animals fasted for 12 h with free access to water. SH-1242 was dissolved in a dosing vehicle consisting of dimethyl sulfoxide, PEG400 (Sigma-Aldrich, St. Louis, MO, USA), and normal saline in a ratio of 1:6:3 (v/v/v%), and intravenously bolus-injected to the right femoral vein at 2 mL/kg for rats or to the tail vein at 5 mL/kg for mice. In this study, the intravenous dose of SH-1242 was set at 0.1 mg/kg for both species. Blood samples (approximately 150 µL each) were collected in heparinized tubes via the right femoral artery at 2, 5, 15, 30, 60, 90, 120, 180, 240, 360, and 480 min after the administration to rats (n = 4) and via the retro-orbital plexus at 2, 5, 15, 30, 60, or 120 min after the administration to mice (n = 3 for each time point). For the mouse study, a blood sample was obtained once from each animal, and the animal was sacrificed after collection. Plasma was obtained by centrifuging blood samples at 16,100 g for 5 min at 4 °C and then processed, as described in Section 3.5. The plasma concentration versus time data was analyzed using the non-compartmental method in the WinNonlin software (WinNonlin Professional 5.0.1.; Pharsight, Mountain View, CA, USA) to calculate essential kinetic parameters, such as terminal phase half-life (T1/2), systemic clearance (CL), and steady-state volume of distribution (Vss).

[3] = Stability of QC samples in mouse plasma under handling and storage conditions; type: in vitro ADME; details: n = 3; for Accuracy (RE%), freeze-thaw stability / Mean concentration, freeze-thaw stability: 3 freeze-thaw cycles; for Accuracy (RE%), long term stability / Mean concentration, long term stability: 4 °C for 2 weeks; for Accuracy (RE%), autosampler stability / Mean concentration, autosampler stability: processed sample, 4 °C for 3 days; for Accuracy (RE%), benchtop stability / Mean concentration, benchtop stability: room temperature (25 °C) for 24 h
Protocol: (§2) Stock solutions of SH-1242 and IS were prepared at the concentrations of 1 mg/mL and 500 ng/mL in methanol, respectively. A serial dilution of the SH-1242 stock solution with methanol was carried out to obtain a set of SH-1242 standard solutions, and 5 µL aliquots of these standard solutions were added to 45 µL of blank plasma to prepare SH-1242 calibration standards at concentrations of 1, 2, 5, 10, 20, 50, 100, 200, 500, and 1000 ng/mL for rat plasma and 2, 5, 10, 20, 50, 100, 200, 500, and 1000 ng/mL for mouse plasma. Using similar dilution protocol, a batch of QC samples for SH-1242 was prepared at concentrations of 1 (LLOQ), 2 (low QC), 40 (mid QC), and 800 ng/mL (high QC) for rat plasma and 2 (LLOQ), 4 (low QC), 40 (mid QC), and 800 ng/mL (high QC) for mouse plasma. Samples were then processed according to the procedure described in Section 3.5.
(§3) The stability of SH-1242 and IS was evaluated under various storage and handling conditions. Stock solutions of SH-1242 and IS at concentrations of 1 mg/mL and 500 ng/mL, respectively, were stored at room temperature (25 °C) for 6 h, under refrigerated conditions (4 °C) for 24 h or 2 weeks, or under two different frozen conditions (−20 °C and −80 °C) for 2 weeks. Solutions of SH-1242 were diluted to 50 ng/mL prior to analysis. In addition, QC samples at three different concentrations (2 or 4 ng/mL, 40 ng/mL, and 800 ng/mL) were prepared and processed. The samples were then placed in various handling conditions (i.e., standing in an autosampler (4 °C for 3 days) or under bench-top condition (25 °C for 24 h), or subjected to three freeze-thaw cycles, or long-term refrigeration (4 °C for 2 weeks)). Mean peak areas of stock solutions were compared with those of fresh stock solutions. For QC samples, the results were compared with nominal concentrations. In this study, analytes were considered stable under test conditions when accuracies at each concentration were within 15% of nominal concentration.

[4] = Pharmacokinetic study after single intravenous administration to mice; type: in vivo; details: male, ICR, plasma, single intravenous 0.1 mg/kg, representative (one time point per mouse)
Protocol: as §1

[5] = Stability in stock solutions under typical storage conditions; type: physicochemical; details: stock solution in methanol (SH-1242 1 mg/mL, IS 500 ng/mL), n = 3
Protocol: as §2, §3

[6] = Stability of QC samples in rat plasma under handling and storage conditions; type: in vitro ADME; details: n = 3; for Accuracy (RE%), freeze-thaw stability / Mean concentration, freeze-thaw stability: 3 freeze-thaw cycles; for Accuracy (RE%), long term stability / Mean concentration, long term stability: 4 °C for 2 weeks; for Accuracy (RE%), autosampler stability / Mean concentration, autosampler stability: processed sample, 4 °C for 3 days; for Accuracy (RE%), benchtop stability / Mean concentration, benchtop stability: room temperature (25 °C) for 24 h
Protocol: as §2, §3

[7] = parameters: method as in PMID 11320671; details: rats; cited from earlier work

AUC(0-inf) [2]: 55.8 ng·h/mL | MRT [2]: 2.48 h | clearance [2]: 30.5 ± 4.49 mL/min/kg | half-life [2]: 2.43 ± 0.983 h | Vd ([2]; read-out: Vss): 4.38 ± 0.716 L/kg | Accuracy (RE%), freeze-thaw stability ([3]; HQC theoretical 800 ng/mL): 5.00% | Mean concentration, freeze-thaw stability ([3]; HQC theoretical 800 ng/mL): 840 ng/mL | Accuracy (RE%), freeze-thaw stability ([3]; LQC theoretical 4 ng/mL): 11.3% | Mean concentration, freeze-thaw stability ([3]; LQC theoretical 4 ng/mL): 4.45 ng/mL | Accuracy (RE%), freeze-thaw stability ([3]; MQC theoretical 40 ng/mL): 6.00% | Mean concentration, freeze-thaw stability ([3]; MQC theoretical 40 ng/mL): 42.4 ng/mL | Accuracy (RE%), long term stability ([3]; HQC theoretical 800 ng/mL): 8.08% | Mean concentration, long term stability ([3]; HQC theoretical 800 ng/mL): 865 ng/mL | Accuracy (RE%), long term stability ([3]; LQC theoretical 4 ng/mL): –4.08% | Mean concentration, long term stability ([3]; LQC theoretical 4 ng/mL): 3.84 ng/mL | Accuracy (RE%), long term stability ([3]; MQC theoretical 40 ng/mL): 12.0% | Mean concentration, long term stability ([3]; MQC theoretical 40 ng/mL): 44.8 ng/mL | Accuracy (RE%), autosampler stability ([3]; HQC theoretical 800 ng/mL): 7.83% | Mean concentration, autosampler stability ([3]; HQC theoretical 800 ng/mL): 863 ng/mL | Accuracy (RE%), autosampler stability ([3]; LQC theoretical 4 ng/mL): 4.67% | Mean concentration, autosampler stability ([3]; LQC theoretical 4 ng/mL): 4.19 ng/mL | Accuracy (RE%), autosampler stability ([3]; MQC theoretical 40 ng/mL): 6.50% | Mean concentration, autosampler stability ([3]; MQC theoretical 40 ng/mL): 42.6 ng/mL | Accuracy (RE%), benchtop stability ([3]; HQC theoretical 800 ng/mL): 1.25% | Mean concentration, benchtop stability ([3]; HQC theoretical 800 ng/mL): 810 ng/mL | Accuracy (RE%), benchtop stability ([3]; LQC theoretical 4 ng/mL): 5.25% | Mean concentration, benchtop stability ([3]; LQC theoretical 4 ng/mL): 4.21 ng/mL | Accuracy (RE%), benchtop stability ([3]; MQC theoretical 40 ng/mL): 4.25% | Mean concentration, benchtop stability ([3]; MQC theoretical 40 ng/mL): 41.7 ng/mL | AUC(0-inf) [4]: 24 ng·h/mL | MRT [4]: 0.493 h | clearance [4]: 69.4 mL/min/kg | half-life [4]: 0.438 h | Vd ([4]; read-out: Vss): 2.06 L/kg | Relative conc. (%) vs initial ([5]; Refrigerated (4 °C, 2 Weeks)): 85.2% | Relative conc. (%) vs initial ([5]; Refrigerated (4 °C, 24 h)): 105% | Relative conc. (%) vs initial ([5]; Refrigerated (−20 °C, 2 Weeks)): 89.1% | Relative conc. (%) vs initial ([5]; Refrigerated (−80 °C, 2 Weeks)): 90.8% | Relative conc. (%) vs initial ([5]; Room Temp. (6 h)): 109% | Accuracy (RE%), freeze-thaw stability ([6]; HQC theoretical 800 ng/mL): –2.50% | Mean concentration, freeze-thaw stability ([6]; HQC theoretical 800 ng/mL): 780 ng/mL | Accuracy (RE%), freeze-thaw stability ([6]; LQC theoretical 2 ng/mL): –7.83% | Mean concentration, freeze-thaw stability ([6]; LQC theoretical 2 ng/mL): 1.84 ng/mL | Accuracy (RE%), freeze-thaw stability ([6]; MQC theoretical 40 ng/mL): 4.92% | Mean concentration, freeze-thaw stability ([6]; MQC theoretical 40 ng/mL): 41.97 ng/mL | Accuracy (RE%), long term stability ([6]; HQC theoretical 800 ng/mL): –8.71% | Mean concentration, long term stability ([6]; HQC theoretical 800 ng/mL): 730 ng/mL | Accuracy (RE%), long term stability ([6]; LQC theoretical 2 ng/mL): 0.833% | Mean concentration, long term stability ([6]; LQC theoretical 2 ng/mL): 2.02 ng/mL | Accuracy (RE%), long term stability ([6]; MQC theoretical 40 ng/mL): –6.75% | Mean concentration, long term stability ([6]; MQC theoretical 40 ng/mL): 37.3 ng/mL | Accuracy (RE%), autosampler stability ([6]; HQC theoretical 800 ng/mL): –3.33% | Mean concentration, autosampler stability ([6]; HQC theoretical 800 ng/mL): 773 ng/mL | Accuracy (RE%), autosampler stability ([6]; LQC theoretical 2 ng/mL): –0.167% | Mean concentration, autosampler stability ([6]; LQC theoretical 2 ng/mL): 2.00 ng/mL | Accuracy (RE%), autosampler stability ([6]; MQC theoretical 40 ng/mL): –2.75% | Mean concentration, autosampler stability ([6]; MQC theoretical 40 ng/mL): 38.9 ng/mL | Accuracy (RE%), benchtop stability ([6]; HQC theoretical 800 ng/mL): –7.88% | Mean concentration, benchtop stability ([6]; HQC theoretical 800 ng/mL): 737 ng/mL | Accuracy (RE%), benchtop stability ([6]; LQC theoretical 2 ng/mL): –6.33% | Mean concentration, benchtop stability ([6]; LQC theoretical 2 ng/mL): 1.87 ng/mL | Accuracy (RE%), benchtop stability ([6]; MQC theoretical 40 ng/mL): –6.83% | Mean concentration, benchtop stability ([6]; MQC theoretical 40 ng/mL): 37.3 ng/mL
Compound: COc1ccc(CC(=O)c2ccc3c(c2OC)C=CC(C)(C)O3)cc1OC [SH-1242, 2-(3,4-dimethoxyphenyl)-1-(5-methoxy-2,2-dimethyl-2H-chromen-6-yl)ethanone]
effective concentration (antiangiogenic activity) [1]: ~10 nM

Compound: COc1cc2c(cc1OC)[C@@H]1C(=O)c3ccc4c(c3O[C@@H]1CO2)C=CC(C)(C)O4 [deguelin, reference compound]
Relative conc. (%) vs initial ([5]; Refrigerated (4 °C, 2 Weeks)): 92.3% | Relative conc. (%) vs initial ([5]; Refrigerated (4 °C, 24 h)): 105% | Relative conc. (%) vs initial ([5]; Refrigerated (−20 °C, 2 Weeks)): 91.4% | Relative conc. (%) vs initial ([5]; Refrigerated (−80 °C, 2 Weeks)): 86.2% | Relative conc. (%) vs initial ([5]; Room Temp. (6 h)): 101% | CL [7]: 72.7 mL/min/kg | Vss [7]: 30.5 L/kg
